Consider one compound from article PMC5397431, “Multigeneration toxicity of imidacloprid and thiacloprid to Folsomia candida” (Ecotoxicology (London, England), 2017).

Where “and” joins values, the source holds several entries; their conditions need not be identical. Equal values may be shown once. A value given as a limit tells only on which side of the number the result lay.

As a reminder, the half-life is how long it takes for the measured level to halve.

Series [1] concerns Folsomia candida. The series is described as follows: Multigeneration toxicity test (survival and reproduction) with springtails in spiked LUFA 2.2 soil. The format is in vivo. Conditions: for EC50: number of juveniles. How it is done:
F. candida were taken from cultures at the Department of Ecological Science at the Vrije Universiteit in Amsterdam. To obtain age-synchronized animals, adults from the culture were separated in boxes with a layer of plaster of Paris over a period of 2–3 days to lay eggs, after which they were removed. After removal of the adults, the eggs were incubated under a 12 h light/12 h dark regime at 20 °C and 75% relative humidity, where they hatched and grew. Juveniles of 10–12 days old were used for testing.
All tests were performed in the natural standard LUFA 2.2 (Lufa Speyer, Germany), a loamy sand with 1.59 ± 0.13% organic carbon, pH in 0.01 M CaCl2 of 5.4 ± 0.2, and water holding capacity (WHC) of 43.5 ± 2.8% of its dry weight.
Pure imidacloprid and thiacloprid (purity 98%) were kindly provided by Bayer CropScience, Monheim, Germany. Test concentrations of imidacloprid and thiacloprid were based on the results of earlier tests. Stock solution of both compounds in water were prepared, to spike the chemicals into the soil and at the same time bringing moisture content to the desired level of 50% of the WHC. To ensure complete thiacloprid dissolution, a small amount of acetone was added to the stock solution. This stock solution was used to spike soil with the highest test concentration and further diluted for spiking soil with the lower concentrations tested. Considering the low amount of acetone needed to make thiacloprid completely dissolve, no attempts were made to correct for that by adding acetone to the lower concentrations and control in the multigeneration test. All soils were thoroughly mixed to achieve a homogenous distribution of the test chemicals in the test soil.
Multigeneration tests started with a control, […] imidacloprid (0, 0.001, 0.003, 0.01, 0.03, 0.1, 0.3, 1.0 mg/kg dry soil) and 9 thiacloprid concentrations (0, 0.0015, 0.0045, 0.014, 0.041, 0.11, 0.31, 1.1, 3.3, 10.0 mg/kg dry soil). Batches of soil sufficient to perform three toxicity tests were prepared. After filling test jars for the parent generation exposure, the remaining spiked soil was stored in glass jars in a climate room at 20 °C for subsequent exposure of the next two generations. Moisture content of the spiked soil was checked regularly by weighing the jars, and replenished by adding deionized water if needed.
After 28 days (35 days for the second generation), the juveniles from the same exposure concentration were pooled in the same container with a moist plaster of Paris bottom and incubated overnight before being transferred to the next cycle of exposure. This experiment spanned a total of three continuous generations (referred to as F0, F1, and F2).

Series [2] is described as follows: Chemical analysis of concentrations in test soil (LC-MS) and degradation half-life (DT50). The series is classed as physicochemical. How it is done:
Soil samples for chemical analysis of imidacloprid and thiacloprid in the test soil were taken at the start of the exposure of each new generation.
The analytical method to determine actual imidacloprid and thiacloprid concentrations in the test soils followed the principles of the QuEChERS extraction method modified from Anastasiades et al. ([2003]) and Payá et al. ([2007]). Briefly, the procedure used was as follows: approx. 1 g moist soil was taken for low concentration treatments (<1 mg/kg), and 50 µL internal standard (Imidacloprid-d4 and Thiacloprid-d4, 250 µg/L) was added. The sample was shaken for 20 min at 250 rpm with 2 mL methanol and centrifuged for 3 min at 1500 rpm. The methanol phase was passed through a granular Na2SO4 column, evaporated till dryness and the residue taken up in 3 mL acetonitrile. For high concentration samples (>1 mg/kg), the soil was first shaken with methanol and centrifuged. Subsequently an aliquot of 100 µL was taken and together with 50 µL internal standard (Imidacloprid-d4 and Thiacloprid-d4, 250 µg/L) added to 1 mL methanol, passed through a granular Na2SO4 column, evaporated to dryness and taken up in 3 mL acetonitrile. For clean-up, the acetonitrile extract was added to a tube filled with Supel QuE (C18 150 mg, PSA 150 mg, MgSO4 900 mg, Sigma Aldrich), shaken by hand for 2 min and centrifuged for 3 min at 3000 rpm. The supernatant was evaporated till dryness under gentle nitrogen stream and the residue taken up in 200 µL of a water-methanol (9/1) mixture.
Extracts were analyzed using LC-MS and quantified by isotope dilution (imidacloprid-d4 and thiacloprid-d4). The neonicotinoids were separated on a 100 × 2.1 mm, 2.6 µm Kinetex XB-C18 column (Phenomenex), applying a gradient of 5 mM ammonium formate pH 4 buffer and methanol, at a flow rate of 0.3 mL/min. The LC system (Agilent 1200 series) was coupled to a 6410 triple quadrupole MS (Agilent) using electrospray ionization (ESI) with data acquisition in positive ion mode. The transitions for imidacloprid were 256.1 > 175/209 (quantifier/qualifier) and for imidacloprid-d4 260 > 179. For thiacloprid the transitions were253.1 > 126/90 (quantifier/qualifier) with 257 > 126 for thiacloprid-d4.
Using data on the imidacloprid and thiacloprid concentrations measured at different times after spiking the soil in the multigeneration test, half-life (DT50) values were estimated assuming first order degradation kinetics. The equation C = C0 * e^−k*t was fitted to the data, with C = concentration at time t in days, C0 is concentration at t = 0 and k = degradation rate constant (day^−1). DT50 was derived as ln(2) / k.

Series [3] concerns Folsomia candida. The series is described as follows: Literature data on toxicity to Folsomia candida in soil. The format is in vivo. As to conditions: 28-day, artificial soil; 10% OM (sphagnum peat), pure; recalculated with logistic dose-response model from figures; ref Reynolds (2008). An excerpt: The LC50 and EC50 values for the toxicity of imidacloprid found in this study are within the range set by previous studies in our lab (Table S3). The values reported by Idinger ([2002]) for the toxicity of imidacloprid in the commercial formulation Confidor 70WP, tested in artificial soil, also are in the same range. Some LC50s reported in the literature, however, are somewhat higher, which could be explained by several factors. […] The use of an artificial soil with higher OM contents probably also explains the somewhat higher LC50 and EC50 values reported by Reynolds ([2008]). […] For two commercial formulations, EFSA ([2008]) found lower NOECs of 0.2–0.32 mg a.s./kg. Laboratory conditions such as temperature and light/dark regime may affect the metabolism of test animals, leading to differential toxicity of imidacloprid.
Table S3. Overview of data on the toxicity of imidacloprid and thiacloprid to Folsomia candida. All LC50 and EC50 values are in mg/kg dry soil and all tests were carried out on a 28-day exposure period. OM = organic matter.

[4] abbreviates: F0 generation, 28 days, LUFA 2.2 soil, nominal concentrations.
Setting [5] is: F1 generation, 35 days, soil spiked at start of F0, nominal concentrations.
Setting [6] is: F2 generation, 28 days, soil spiked at start of F0, nominal concentrations.
[7] abbreviates: range over the three generations, Lufa 2.2, pure compound, this study.

Turning to `O=[N+]([O-])NC1=NCCN1Cc1ccc(Cl)nc1` [Imidacloprid, imidacloprid], the NOEC in series [1] (setting [4]) was 0.1 mg/kg dry soil and 0.10 mg/kg dry soil; in series [1] (setting [5]), 0.1 mg/kg dry soil and 0.10 mg/kg dry soil; in series [1] (setting [6]), 0.1 mg/kg dry soil and 0.10 mg/kg dry soil. Besides, the LC50 in series [1] (F0 generation, 28 days, adult survival, LUFA 2.2 soil, nominal concentrations) was 0.44 mg/kg dry soil; in series [1] (setting [5]), 0.39 mg/kg dry soil; in series [1] (setting [6]), 0.21 mg/kg dry soil. Moreover, the values for the EC50 in series [1] (setting [4]), in series [1] (setting [5]) and in series [1] (setting [6]) were 0.29 mg/kg dry soil, 0.12 mg/kg dry soil and 0.14 mg/kg dry soil, respectively. This compound registered an EC10 in series [1] (Folsomia candida, in vivo, 35 days, pH 5.4) of 0.080 mg/kg dry soil. Besides, the “EC50, range over generations” value in series [1] (setting [7]) is 0.12–0.29 mg/kg dry soil. The “LC50, range over generations” value in series [1] (setting [7]) is listed as 0.21–0.44 mg/kg dry soil. Moreover, the “concentration, % of the nominal concentration” value in series [2] (LUFA 2.2 soil, after 28 days of incubation at 20 °C, all concentrations analysed) is recorded as 68.1–83.8%. Also, the “recovery, % of the nominal concentration” value in series [2] (LUFA 2.2 soil, start of F0 exposure (T=0)) is 77.6–89.9%. In addition, the “concentration measured in soil” value was found to be 0.0078±0.0028 mg/kg dry soil in series [2] (T=0, nominal 0.01, mean ± SD (n=3)); 0.082±0.0018 mg/kg dry soil in series [2] (T=0, nominal 0.1, mean ± SD (n=3)); 0.27±0.014 mg/kg dry soil in series [2] (T=0, nominal 0.3, mean ± SD (n=3)); 0.86±0.022 mg/kg dry soil in series [2] (T=0, nominal 1.0, mean ± SD (n=3)); 0.068±0.0025 mg/kg dry soil in series [2] (T=28 d, nominal 0.1, mean ± SD (n=3)); 0.23±0.0092 mg/kg dry soil in series [2] (T=28 d, nominal 0.3, mean ± SD (n=3)). In addition, in series [2] (T=28 d, nominal 1.0, mean ± SD (n=3)), the “concentration measured in soil” value was determined as 0.84±0.083 mg/kg dry soil. The same compound gave a half-life in series [2] (pH 5.4) of at least 125 days. Also, the “EC50, recalculated” value in series [3] is 0.26^& mg/kg dry soil. For the same compound, the “LC50, recalculated” value in series [3] is recorded as 0.86^& mg/kg dry soil.
